The values below come from the supplement of paper PMC11061612.

Experiment [1] concerns SW1088 (Low Grade Glioma). Briefly: Bliss excess, mean over the matrix (fraction); higher = more synergy. An outline of the steps:
(§1)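 After 24 hours at 37°C and 5% CO2 in 1536-well plates, cells in DMEM/F12 or RPMI plus 10% FBS received two-drug dose matrices for 72 hours. Viability came from CellTiter-Glo 2.0 luminescence and was scaled as inhibition, anchored at 0 by vehicle wells and at 1 by blank wells. Combination Emax is taken as the second-highest inhibition in the matrix, and Bliss excess as the observed combination effect less EA + EB − EA·EB, with EA and EB the single-agent effects.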

Experiment [2] concerns DB (B-Cell Non-Hodgkin's Lymphoma). Described as above. An outline of the steps: as §1
Experiment [3] relates to KARPAS-1106P (B-Cell Non-Hodgkin's Lymphoma). Described as above. Summed up: as §1
Experiment [4] deals with KATOIII (Gastric Carcinoma). Described as above. Summed up:
as §1

Experiment [5] concerns NCI-H211 (Small Cell Lung Carcinoma). The description is as above. An outline of the steps:
as §1

For experiment [6], the system named is MDA-MB-231 (Breast Carcinoma). The experiment is described as above. An outline of the steps: as §1
Experiment [7] concerns G-292-Clone-A141B1 (Osteosarcoma). The experiment is described as above. An outline of the steps:
as §1

The test system of experiment [8] is COR-L95 (Small Cell Lung Carcinoma). The experiment is described as above. Summed up:
as §1

The test system of experiment [9] is NCI-H1299 (Non-Small Cell Lung Carcinoma). Described as above. Summed up:
as §1

Experiment [10] concerns DOV13 (Ovarian Carcinoma). Described as above. Summed up:
as §1

Experiment [11] relates to SN12C (Kidney Carcinoma). Described as above. Summed up: as §1
For experiment [12], the system named is OCI-AML2 (Acute Myeloid Leukemia). The experiment is described as above. An outline of the steps:
as §1

The test system of experiment [13] is MDA-MB-157 (Breast Carcinoma). Described as above. An outline of the steps: as §1
Experiment [14] deals with SW1088 (Low Grade Glioma). Briefly: combination Emax (second highest fraction inhibited in the dose matrix, 72 h); higher = more inhibition; extreme values may be limits of the assay. Summed up: as §1
The test system of experiment [15] is MFH-ino (Other Solid Carcinomas). The experiment is described as above. An outline of the steps:
as §1

The test system of a further experiment is NCI-H2595 (Mesothelioma). Described as above. An outline of the steps: as §1
Experiment [16] relates to NALM-6 (B-Lymphoblastic Leukemia). Described as above. An outline of the steps:
as §1

For experiment [17], the system named is G-292-Clone-A141B1 (Osteosarcoma). The experiment is described as above. An outline of the steps: as §1
Experiment [18] concerns LS-513 (Colorectal Carcinoma). The description is as above. Summed up:
as §1

The test system of experiment [19] is SN12C (Kidney Carcinoma). The description is as above. Summed up:
as §1
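For Bliss excess, mean over the matrix in this document: after 72 h of two-drug dosing.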

With `CN(CCO)CC[C@H](CSc1ccccc1)Nc1ccc(S(=O)(=O)NC(=O)c2ccc(N3CCC([C@@H](O)c4ccccc4-c4ccc(Cl)cc4)CC3)cc2)cc1S(=O)(=O)C(F)(F)F` [AZD4320] + Nc1ccn([C@@H]2O[C@H](CO)[C@@H](O)C2(F)F)c(=O)n1 [Gemcitabine] (first compound max 1 µM, 7x7, partner max 0.3 µM), the Bliss excess was -0.0628 in experiment [1]; -0.029 in experiment [2]; -0.0009 in experiment [3]; 0.0213 in [4]; 0.0135 in experiment [5]; -0.0245 in experiment [6]. The Bliss excess in experiment [7] was -0.0015; in experiment [8], 0.0634; in [9], -0.0261; in experiment [10], -0.0366; with SN12C (Kidney Carcinoma) [11], 0.0195; in experiment [12], 0.0007. Also, in experiment [13], the Bliss excess is -0.0349. For the same compound, the “combination Emax” value in [14] was 0.151; in experiment [15] it was 0.873; in the experiment on NCI-H2595 (Mesothelioma), 0.382; in [16] it was 1; in [17] it was 0.511; in experiment [18], 0.855. Also, the “combination Emax” value with SN12C (Kidney Carcinoma) [19] amounted to 0.52.
In the case of `N#Cc1cnc(Nc2cc(NC[C@H]3CNCCO3)c(C(F)(F)F)cn2)cn1` [SRA737] + O=c1[nH]cc(F)c(=O)[nH]1 [5-Fluorouracil] (first compound max 10 µM, 7x7, partner max 20 µM), the Bliss excess in [1] is 0.0081; in experiment [2], -0.0088; in experiment [3] it was 0.0407; in experiment [4], -0.0805; in experiment [5], 0.0823; in [6] it was -0.0492. Further, the Bliss excess in [7] was -0.0458; in experiment [8], -0.0218; in experiment [9], -0.0191; in experiment [10], 0.0258; in the experiment with SN12C (Kidney Carcinoma) [11], -0.0474; in experiment [12], 0.0247. The Bliss excess in experiment [13] worked out at 0.0781. Moreover, the “combination Emax” value was found to be 0.691 in experiment [14]; 0.314 in experiment [15]; 0.132 in the experiment on NCI-H2595 (Mesothelioma); 0.896 in experiment [16]; 0.121 in [17]; 0.644 in experiment [18]. For the same compound, the “combination Emax” value in the experiment on SN12C (Kidney Carcinoma) [19] is 0.0841.
On to `C[C@@H](Oc1cc(-c2cnn(C3CCNCC3)c2)cnc1N)c1c(Cl)ccc(F)c1Cl` [Crizotinib] + CC1=C(C(=CC=C1)Cl)NC(=O)C2=CN=C(S2)NC3=CC(=NC(=N3)C)N4CCN(CC4)CCO [Dasatinib] (first compound max 10 µM, 7x7, partner max 2 µM), for which the Bliss excess in [1] was 0.016; in experiment [2] it was -0.0805; in experiment [3], -0.026; in experiment [4] it was -0.0263; in experiment [5], -0.0089; in experiment [6], 0.0116. For the same compound, the Bliss excess in experiment [7] was 0.028; in experiment [8], -0.0662; in experiment [9], 0.123; in [10], 0.067; with SN12C (Kidney Carcinoma) [11] it was -0.0384; in experiment [12], -0.0271. In addition, in experiment [13], the Bliss excess was -0.0052. Moreover, the “combination Emax” value in experiment [14] amounted to 0.829; in experiment [15] it was 0.821; in the experiment with NCI-H2595 (Mesothelioma), 0.628; in experiment [16], 0.942; in [17], 0.762; in experiment [18] it was 0.978. Further, the “combination Emax” value in the experiment on SN12C (Kidney Carcinoma) [19] came to 0.231.
For the compound `CN(CCO)CC[C@H](CSc1ccccc1)Nc1ccc(S(=O)(=O)NC(=O)c2ccc(N3CCC([C@@H](O)c4ccccc4-c4ccc(Cl)cc4)CC3)cc2)cc1S(=O)(=O)C(F)(F)F` [AZD4320] + CC(=O)O[C@H]1C(=O)[C@@]2(C)[C@H]([C@H](OC(=O)c3ccccc3)[C@]3(O)C[C@H](OC(=O)[C@H](O)[C@@H](NC(=O)c4ccccc4)c4ccccc4)C(C)=C1C3(C)C)[C@]1(OC(C)=O)CO[C@@H]1C[C@@H]2O [Paclitaxel] (first compound max 1 µM, 7x7, partner max 3 µM), the Bliss excess in [1] turned out to be 0.0303; in experiment [2], 0.043; in experiment [3], 0.0929; in experiment [4], 0.168; in experiment [5], 0.0259; in experiment [6], 0.111. The Bliss excess in [7] was 0.157; in experiment [8] it was 0.141; in [9], 0.007; in [10], 0.0136; in the experiment with SN12C (Kidney Carcinoma) [11], 0.153; in [12], -0.0016. Moreover, the Bliss excess in experiment [13] turned out to be 0.0168. Also, the “combination Emax” value in experiment [14] was determined as 0.837; in experiment [15] it was 0.777; with NCI-H2595 (Mesothelioma), 0.726; in experiment [16], 1; in [17], 0.891; in [18] it was 0.963. Besides, in the experiment on SN12C (Kidney Carcinoma) [19], the “combination Emax” value was 0.823.
Turning to `O=C(c1cc(Cc2n[nH]c(=O)c3ccccc23)ccc1F)N1CCN(C(=O)C2CC2)CC1` [Olaparib] + COc1nnc2ccc(N3CCC(c4ccc(OCCN5CCN(C)C(=O)[C@H]5C)cc4)CC3)nn12 [AZD5153] (first compound max 10 µM, 7x7, partner max 1 µM), the Bliss excess in experiment [1] was -0.0563; in experiment [2], 0.0255; in experiment [3], -0.0162; in experiment [4], -0.0584; in experiment [5] it was -0.0168; in experiment [6], -0.0586. Further, the Bliss excess in experiment [7] was -0.0523; in [8] it was -0.0488; in [9], -0.0826; in experiment [10], -0.0778; with SN12C (Kidney Carcinoma) [11] it was -0.0222; in experiment [12] it was -0.02. In addition, the Bliss excess in [13] is -0.0507. The “combination Emax” value turned out to be 0.392 in [14]; 0.346 in [15]; 0.273 in the experiment on NCI-H2595 (Mesothelioma); 0.911 in [16]; 0.224 in experiment [17]; 0.591 in [18]. For the same compound, the “combination Emax” value in the experiment on SN12C (Kidney Carcinoma) [19] came to 0.255.
Turning to `CN(CCO)CC[C@H](CSc1ccccc1)Nc1ccc(S(=O)(=O)NC(=O)c2ccc(N3CCC([C@@H](O)c4ccccc4-c4ccc(Cl)cc4)CC3)cc2)cc1S(=O)(=O)C(F)(F)F` [AZD4320] + CS(=O)(=O)CCNCc1ccc(-c2ccc3ncnc(Nc4ccc(OCc5cccc(F)c5)c(Cl)c4)c3c2)o1 [Lapatinib] (first compound max 1 µM, 7x7, partner max 10 µM), the Bliss excess in experiment [1] was -0.0544; in [2], 0.0048; in experiment [3] it was -0.0212; in experiment [4], -0.0407; in experiment [5] it was 0.0409; in experiment [6], 0.0241. Besides, the Bliss excess in experiment [7] is 0.0467; in experiment [8] it was 0.0386; in experiment [9], -0.0664; in [10], 0.0488; in the experiment on SN12C (Kidney Carcinoma) [11], -0.0385; in experiment [12], 0.0843. For the same compound, in [13], the Bliss excess amounted to 0.019. In addition, the “combination Emax” value in experiment [14] worked out at 0.388; in experiment [15] it was 0.262; in the experiment on NCI-H2595 (Mesothelioma) it was 0.329; in [16] it was 1; in [17], 0.949; in experiment [18], 0.956. The “combination Emax” value with SN12C (Kidney Carcinoma) [19] was 0.347.
